This is an account of results in patent US20100029657A1, “Bridged, Bicyclic Heterocyclic or Spiro Bicyclic Heterocyclic Derivatives of Pyrazolo[1, 5-A]Pyrimidines, Methods for Preparation and Uses Thereof” (Wyeth, priority 2008, published 2010).

This test deals with T1, Flag/GST-tagged recombinant human B-Raf (Homo sapiens, UniProt P15056).
T1 construct: Flag; GST; made in house; host or cells: Sf9 insect cells (B-Raf); E. coli (MEK1-GST)
T1 sequence (P15056 whole entry): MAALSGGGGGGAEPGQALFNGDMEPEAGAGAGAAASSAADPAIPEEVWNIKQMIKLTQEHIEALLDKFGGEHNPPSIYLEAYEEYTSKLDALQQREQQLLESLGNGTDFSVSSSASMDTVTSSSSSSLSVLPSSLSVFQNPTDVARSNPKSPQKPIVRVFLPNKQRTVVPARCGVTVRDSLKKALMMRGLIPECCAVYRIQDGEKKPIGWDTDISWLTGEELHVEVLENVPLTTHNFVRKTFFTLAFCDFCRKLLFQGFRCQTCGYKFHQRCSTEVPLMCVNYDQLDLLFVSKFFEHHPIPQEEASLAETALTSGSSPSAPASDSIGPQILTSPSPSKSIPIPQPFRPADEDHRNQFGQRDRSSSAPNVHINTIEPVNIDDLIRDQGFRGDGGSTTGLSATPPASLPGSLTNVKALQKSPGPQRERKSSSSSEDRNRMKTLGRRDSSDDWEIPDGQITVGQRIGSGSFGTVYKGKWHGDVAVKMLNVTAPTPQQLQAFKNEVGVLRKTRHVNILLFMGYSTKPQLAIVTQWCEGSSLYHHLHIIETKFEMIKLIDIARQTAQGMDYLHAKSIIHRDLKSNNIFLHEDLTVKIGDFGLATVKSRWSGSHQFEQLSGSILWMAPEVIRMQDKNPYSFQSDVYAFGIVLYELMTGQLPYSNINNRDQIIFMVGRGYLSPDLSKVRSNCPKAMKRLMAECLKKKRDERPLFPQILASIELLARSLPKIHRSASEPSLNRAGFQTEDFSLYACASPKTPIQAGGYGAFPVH
Nature of the test: B-Raf kinase assay (phosphorylation of GST-MEK1, phospho-MEK1 antibody/Europium detection). Format: biochemical. Particulars: B-Raf IC50 Data for compounds of Formula A; read-out: Mean IC50. A digest of the protocol: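 Percent inhibition was calculated at each compound concentration from Europium time-resolved fluorescence (anti-phospho-MEK1, then Eu-conjugated anti-rabbit) after GST capture. The upstream kinase step used GST-MEK1 with 0.2 nM B-Raf for 45 min at room temperature in MOPS buffer, pH 7.2. It was started with a cocktail of 200 μM ATP and 40 mM MgCl2.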
What is called IC50 is the point on the concentration scale where inhibition reaches its midpoint. Consider `c1cc(-c2ccnc3c(-c4cccc5[nH]ncc45)c(-c4ccncc4)nn23)cc(N2C[C@@H]3C[C@H]2CN3)c1` [Example 124, 7-{3-[(1S,4S)-2,5-diazabicyclo[2.2.1]hept-2-yl]phenyl}-3-(1H-indazol-4-yl)-2-pyridin-4-ylpyrazolo[1,5-a]pyrimidine], for which the IC50 amounted to 37.6 nM.

Consider `CC(C)(C)OC(=O)N1C[C@@H]2C[C@H]1CN2c1ccc(-c2ccnc3c(-c4ccc(Cl)c5[nH]ncc45)c(-c4ccncc4)nn23)cc1` [Example 125, tert-butyl (1S,4S)-5-{4-[3-(7-chloro-1H-indazol-4-yl)-2-pyridin-4-ylpyrazolo[1,5-a]pyrimidin-7-yl]phenyl}-2,5-diazabicyclo[2.2.1]heptane-2-carboxylate], for which the IC50 came to 44.9 nM.

For the molecule `CN1C[C@@H]2C[C@H]1CN2c1cccc(-c2ccnc3c(-c4cccc5[nH]ncc45)c(-c4ccncc4)nn23)c1` [Example 126, 3-(1H-indazol-4-yl)-7-{3-[(1S,4S)-5-methyl-2,5-diazabicyclo[2.2.1]hept-2-yl]phenyl}-2-pyridin-4-ylpyrazolo[1,5-a]pyrimidine], the IC50 worked out at 61.2 nM.

For `Clc1ccc(-c2c(-c3ccncc3)nn3c(-c4ccc(N5C[C@@H]6C[C@H]5CN6)cc4)ccnc23)c2cn[nH]c12` [Example 127, 3-(7-chloro-1H-indazol-4-yl)-7-{4-[(1S,4S)-2,5-diazabicyclo[2.2.1]hept-2-yl]phenyl}-2-pyridin-4-ylpyrazolo[1,5-a]pyrimidine], the IC50 is 31.3 nM.

Take `CC(C)(C)OC(=O)N1CCC[C@H]1C(=O)N1C2CCC1CC(c1ccnc3c(-c4cccc5[nH]ncc45)c(-c4ccncc4)nn13)C2` (stereo partly drawn) [Example 128, tert-butyl (2S)-2-({3-[3-(1H-indazol-4-yl)-2-pyridin-4-ylpyrazolo[1,5-a]pyrimidin-7-yl]-8-azabicyclo[3.2.1]oct-8-yl}carbonyl)pyrrolidine-1-carboxylate]: the half-maximal inhibitory concentration (IC50) worked out at 39.4 nM.

Turning to `O=C([C@@H]1CCCN1)N1C2CCC1CC(c1ccnc3c(-c4cccc5[nH]ncc45)c(-c4ccncc4)nn13)C2` (stereo partly drawn) [Example 129, 3-(1H-indazol-4-yl)-7-(8-L-prolyl-8-azabicyclo[3.2.1]oct-3-yl)-2-pyridin-4-ylpyrazolo[1,5-a]pyrimidine], the half-maximal inhibitory concentration (IC50) was 2.1 nM.

Regarding `CC(=O)CN1C2CCC1CC(c1ccnc3c(-c4cccc5[nH]ncc45)c(-c4ccncc4)nn13)C2` (centres unmarked) [Example 130, 1-{3-[3-(1H-indazol-4-yl)-2-pyridin-4-ylpyrazolo[1,5-a]pyrimidin-7-yl]-8-azabicyclo[3.2.1]oct-8-yl}propan-2-one], the IC50 stood at 75.9 nM.

On to `CCOC(=O)N1C2CCC1CC(c1ccn3nc(-c4ccncc4)c(-c4ccc(F)c5[nH]ncc45)c3n1)C2` (centres unmarked) [Example 131, ethyl 3-[3-(7-fluoro-1H-indazol-4-yl)-2-pyridin-4-ylpyrazolo[1,5-a]pyrimidin-5-yl]-8-azabicyclo[3.2.1]octane-8-carboxylate], for which the IC50 turned out to be 1 nM.

On to `COc1cccc(-c2c(-c3ccncc3)nn3c(-c4ccc(N5C[C@@H]6C[C@H]5CN6)cc4F)ccnc23)c1` [Example 132, 7-{4-[(1S,4S)-2,5-diazabicyclo[2.2.1]hept-2-yl]-2-fluorophenyl}-3-(3-methoxyphenyl)-2-pyridin-4-ylpyrazolo[1,5-a]pyrimidine], for which the IC50 worked out at 0.4 nM.

On to `Oc1cccc(-c2c(-c3ccncc3)nn3c(-c4ccc(N5C[C@@H]6C[C@H]5CN6)cc4F)ccnc23)c1` [Example 133, 3-(7-{4-[(1S,4S)-2,5-diazabicyclo[2.2.1]hept-2-yl]-2-fluorophenyl}-2-pyridin-4-ylpyrazolo[1,5-a]pyrimidin-3-yl)phenol], for which the IC50 was below 0.3 nM.

Regarding `CN1C[C@@H]2C[C@H]1CN2c1ccc(-c2ccnc3c(-c4cccc(O)c4)c(-c4ccncc4)nn23)c(F)c1` [Example 134, 3-(7-{2-fluoro-4-[(1S,4S)-5-methyl-2,5-diazabicyclo[2.2.1]hept-2-yl]phenyl}-2-pyridin-4-ylpyrazolo[1,5-a]pyrimidin-3-yl)phenol], the IC50 is below 0.3 nM.
